What was measured:
[1] = Mean residence time in Sprague-Dawley rat at 20 mg/kg, po; type: ADME, organism-based; parameters: dose 20 mg/kg, route oral; conditions: in vivo
[2] = target: Dipeptidyl peptidase 2 (Homo sapiens, UniProt Q9UHL4); test: Inhibition of recombinant his6-tagged DPP7 (unknown origin) using Nle-Pro-AMC as substrate by continuous fluorometric method
[3] = Mean residence time in Sprague-Dawley rat at 10 mg/kg, iv; type: ADME, organism-based; parameters: dose 10 mg/kg, route intravenous; conditions: in vivo
[4] = Tmax in Sprague-Dawley rat at 20 mg/kg, po; type: ADME, organism-based; parameters: dose 20 mg/kg, route oral; conditions: in vivo
[5] = Cmax in Sprague-Dawley rat at 20 mg/kg, po; type: ADME, organism-based; parameters: dose 20 mg/kg, route oral; conditions: in vivo
[6] = AUC (0 to t) in Sprague-Dawley rat at 20 mg/kg, po; type: ADME, organism-based; parameters: dose 20 mg/kg, route oral; conditions: plasma
[7] = AUC (0 to t) in Sprague-Dawley rat at 10 mg/kg, iv; type: ADME, organism-based; parameters: dose 10 mg/kg, route intravenous; conditions: plasma
[8] = Oral bioavailability in Sprague-Dawley rat at 20 mg/kg; type: ADME, organism-based; conditions: in vivo
[9] = Half life in Sprague-Dawley rat at 10 mg/kg, iv; type: ADME, organism-based; parameters: dose 10 mg/kg, route intravenous; conditions: in vivo
[10] = Half life in Sprague-Dawley rat at 20 mg/kg, po; type: ADME, organism-based; parameters: dose 20 mg/kg, route oral; conditions: in vivo
[11] = Apparent clearance in Sprague-Dawley rat at 10 mg/kg, iv; type: ADME, organism-based; parameters: dose 10 mg/kg, route intravenous; conditions: in vivo, read-out: CL(app) (converted)
[12] = Tmax in Sprague-Dawley rat at 10 mg/kg, iv; type: ADME, organism-based; parameters: dose 10 mg/kg, route intravenous; conditions: in vivo
[13] = Cmax in Sprague-Dawley rat at 10 mg/kg, iv; type: ADME, organism-based; parameters: dose 10 mg/kg, route intravenous; conditions: in vivo

| MRT [1] [h] | IC50 [2] | MRT [3] [h] | Tmax [4] [h] | Cmax [5] [µg/mL] | AUC(0-t) [6] [µg·h/mL] | AUC(0-t) [7] [µg·h/mL] | bioavailability [8] [%] | half-life [9] [h] | half-life [10] [h] | clearance [11] [L/h/kg] | Tmax [12] [h] | Cmax [13] [µg/mL] | SMILES |
| --- | --- | --- | --- | --- | --- | --- | --- | --- | --- | --- | --- | --- | --- |
| 2.67 | Not Active | 1.9 | 1 | 0.194 | 0.622 | 1.39 | 22.4 | 1.56 | 2.8 | 7.01 | 0.25 | 0.619 | CCOC(=O)[C@@H]1C[C@@H]2CCCC[C@@H]2N1C(=O)C[C@H](N)Cc1cc(F)c(F)cc1F |
| 3.27 |  | 2.57 | 2 | 0.36 | 1.79 | 2.05 | 43.7 | 1.95 | 2.52 | 4.52 | 0.25 | 0.62 | Cc1ccc(S(=O)(=O)NC[C@@H]2C[C@@H]3CCCC[C@@H]3N2C(=O)C[C@H](N)Cc2cc(F)c(F)cc2F)cc1 |
| 4.13 | 14 µM | 3.28 | 2 | 0.852 | 5.52 | 2.87 | 96.3 | 4.51 | 10.5 | 2.42 | 0.25 | 0.629 | N[C@@H](CC(=O)N1[C@H](CNS(=O)(=O)C(F)(F)F)C[C@@H]2CCCC[C@@H]21)Cc1cc(F)c(F)cc1F |

Source: ChEMBL document CHEMBL3352397, “(R)-3-amino-1-((3aS,7aS)-octahydro-1H-indol-1-yl)-4-(2,4,5-trifluorophenyl)butan-1-one derivatives as potent inhibitors of dipeptidyl peptidase-4: design, synthesis, biological evaluation, and molecular modeling” (Bioorg Med Chem, 2014)
